# According to patent US7459444B2, “Inhibitors of chymase” (Janssen Pharmaceutica N.V., priority 2004, dated 2008):
# Molecular target: T1, human skin chymase (Homo sapiens, UniProt P23946)
# T1 construct: using human skin chymase (Cortex Biochem); purchased Cortex Biochem
# T1 sequence (P23946 22-247): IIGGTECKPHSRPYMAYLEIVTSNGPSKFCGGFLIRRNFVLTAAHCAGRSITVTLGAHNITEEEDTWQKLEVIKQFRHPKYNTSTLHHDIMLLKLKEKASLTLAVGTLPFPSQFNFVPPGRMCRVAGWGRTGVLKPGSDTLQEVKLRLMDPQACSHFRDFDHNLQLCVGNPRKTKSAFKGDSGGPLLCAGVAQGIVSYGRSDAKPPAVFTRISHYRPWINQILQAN
# Experiment: Enzyme-catalyzed hydrolysis assay (chymase inhibition)
# Assay type: biochemical
# Conditions: 10 nM enzyme, 0.7 mM Suc-Ala-Ala-Pro-Phe-pNa, pH 8.0, 37° C., 30 minutes
# Description: Enzyme-catalyzed hydrolysis rates were measured spectro-photometrically using human skin chymase (Cortex Biochem), a chromogenic substrate (Suc-Ala-Ala-Pro-Phe-pNa) (Bachem) in aqueous buffer (450 mM Tris, 1800 mM NaCl, pH 8.0), and a microplate reader (Molecular Devices). […] Percent inhibition was calculated by comparing the initial reaction slopes of the samples without inhibitor to those with inhibitor. IC50 values were determined using a four parameter fit logistics model. The term “NT” indicates a compound that was not tested.
row,Compound,IC50
1,"CN(Cc1cc2ccccc2cc1NC(=O)C(c1cccc2ccccc12)P(=O)(O)O)C1CCN(C(=O)c2ccc3ccccc3c2)CC1 (stereo not shown) [Cpd 102, {[3-({Methyl-[1-(naphthalene-2-carbonyl)-piperidin-4-yl]-amino}-methyl)-naphthalen-2-ylcarbamoyl]-naphthalen-1-yl-methyl}-phosphonic acid]",3.45 µM
2,O=C(Nc1ccc2ccccc2c1)C(c1csc2ccc(Cl)cc12)P(=O)(O)CCCCc1ccccc1 (stereo not shown) [Cpd 51],0.46 ± 0.06 µM
3,Cn1cc(C(C(=O)Nc2ccc3ccccc3c2)P(=O)(O)O)c2ccc(Cl)cc21 (stereo not shown) [Cpd 52],0.48 ± 0.18 µM
4,CP(=O)(O)C(C(=O)N/C=C/c1cc(F)c(F)c(F)c1)c1csc2ccc(Cl)cc12 (stereo not shown) [Cpd 16],0.055 ± 0.005 µM
5,CP(=O)(O)C(C(=O)Nc1ccc2ccccc2c1)c1c(C(=O)NCc2ccccc2)sc2ccccc12 (stereo not shown) [Cpd 127],7 ± 1.1 µM
6,CP(=O)(O)C(C(=O)N/C=C/c1cccc(N)c1)c1csc2ccc(Cl)cc12 (stereo not shown) [Cpd 172],0.041 ± 0.02 µM
7,CP(=O)(O)C(C(=O)N/C=C/c1ccc(F)cc1F)c1csc2ccc(Cl)cc12 (stereo not shown) [Cpd 171],0.025 ± 0.01 µM
8,O=C(Nc1cc2ccccc2cc1CNCc1ccccc1)C(c1cccc2ccccc12)P(=O)(O)O (stereo not shown) [Cpd 107],4.3 ± 0.03 µM
9,O=C(Nc1cccc(Oc2ccccc2)c1)C(c1cccc2ccccc12)P(=O)(O)O (stereo not shown) [Cpd 138],8.7 µM
10,O=C(COc1cc2ccccc2cc1NC(=O)C(c1cccc2ccccc12)P(=O)(O)O)NCCCc1ccccc1 (stereo not shown) [Cpd 130],7.44 ± 3.73 µM
11,CP(=O)(O)C(C(=O)NC=Cc1ccc(C#N)cc1)c1csc2ccc(Cl)cc12 (stereo not shown) [Cpd 157],11 ± 1.2 µM
12,O=C(Nc1ccc2ccccc2c1)C(c1csc2cccc(Br)c12)P(=O)(O)O (stereo not shown) [Cpd 99],2.96 ± 1.18 µM
13,"O=C(Nc1ccc2ccccc2c1)C(c1csc2ccc(Cl)cc12)S(=O)(=O)O (stereo not shown) [Cpd 50, [(5-Chloro-benzo[b]thiophen-3-yl)-(naphthalen-2-ylcarbamoyl)-methyl]-sulfonic acid]",0.43 ± 0.15 µM
14,O=C(Nc1cc2ccccc2cc1C(=O)N1CCCC1c1ccccc1)C(c1cccc2ccccc12)P(=O)(O)O (stereo not shown) [Cpd 131],7.68 µM
15,CP(=O)(O)C(C(=O)N/C=C/c1cccc(F)c1F)c1csc2ccc(Cl)cc12 (stereo not shown) [Cpd 163],0.017 µM
16,CN(CCc1ccccc1)Cc1cc2ccccc2cc1NC(=O)C(c1cccc2ccccc12)P(=O)(O)O (stereo not shown) [Cpd 126],7 µM
17,O=C(Nc1cc2ccccc2cn1)C(c1cccc2ccccc12)P(=O)(O)O (stereo not shown) [Cpd 137],8.66 µM
18,O=C(Nc1ccc2ccccc2c1)C(c1cccc2c1ccn2-c1ccccc1)P(=O)(O)O (stereo not shown) [Cpd 128],7.3 µM
19,"O=C(Nc1ccc2ccccc2c1OCC(=O)N1CCC(c2ccccc2)CC1)C(c1cccc2ccccc12)P(=O)(O)O (stereo not shown) [Cpd 114, (Naphthalen-1-yl-{1-[2-oxo-2-(4-phenyl-piperidin-1-yl)-ethoxy]-naphthalen-2-ylcarbamoyl}-5 methyl)-phosphonic acid]",4.9 ± 1.34 µM
20,O=C(Nc1cc2ccccc2cc1OCC=Cc1ccccc1)C(c1cccc2ccccc12)P(=O)(O)O (stereo not shown) [Cpd 121],5.9 µM
21,O=C(Nc1ccc2ccccc2c1)C(c1cn(CC2CC2)c2ccccc12)P(=O)(O)O (stereo not shown) [Cpd 62],0.82 ± 0.5 µM
22,CC(C)n1cc(C(C(=O)Nc2ccc3ccccc3c2)P(=O)(O)O)c2ccccc21 (stereo not shown) [Cpd 77],1.48 ± 0.45 µM
23,Cn1cc(C(C(=O)Nc2ccc3ccccc3c2)P(=O)(O)O)c2cc(Br)ccc21 (stereo not shown) [Cpd 13],0.04 ± 0.02 µM
24,O=C(Nc1ccc2ccsc2c1)C(c1cccc2ccccc12)P(=O)(O)O (stereo not shown) [Cpd 59],0.635 µM
25,CP(=O)(O)C(C(=O)N/C=C/c1ccccc1Cl)c1csc2ccc(Cl)cc12 (stereo not shown) [Cpd 160],0.065 ± 0.02 µM
26,"O=C(Nc1cc2ccccc2cc1CNC1CCCCC1)C(c1cccc2ccccc12)P(=O)(O)O (stereo not shown) [Cpd 70, [(3-Cyclohexylaminomethyl-naphthalen-2-ylcarbamoyl)-naphthalen-1-yl-methyl]-phosphonic acid]",0.93 ± 0.07 µM
27,"O=C(Nc1ccccc1)Oc1cc2ccccc2cc1NC(=O)C(c1cccc2ccccc12)P(=O)(O)O (stereo not shown) [Cpd 95, [Naphthalen-1-yl-(3-phenylcarbamoyloxy-naphthalen-2-yl-carbamoyl)-methyl]-phosphonic acid]",2.8 µM
28,"O=C(Nc1ccc2ccccc2c1)C(c1cc2ccccc2s1)P(=O)(O)O (stereo not shown) [Cpd 140, [(Benzo[b]thiophen-2-yl)-(naphthalen-2-ylcarbamoyl)-methyl]-phosphonic acid]",9.2 ± 0.73 µM
29,O=C(Nc1cc2ccccc2cc1C(=O)N1CCC(c2c[nH]c3ccccc23)CC1)C(c1cccc2ccccc12)P(=O)(O)O (stereo not shown) [Cpd 83],1.72 µM

# More lines, in order of falling IC50, values ahead:
row,IC50,Compound
1,5.36 µM,COc1ccc(CCN(C)C(=O)c2cc3ccccc3cc2NC(=O)C(c2cccc3ccccc23)P(=O)(O)O)cc1OC (stereo not shown) [Cpd 115]
2,3.88 ± 2.41 µM,O=C(Nc1cc2ccccc2cc1C(=O)N1CCC2(CC1)C(=O)NCN2c1ccccc1)C(c1cccc2ccccc12)P(=O)(O)O (stereo not shown) [Cpd 104]
3,3.12 µM,O=C(Nc1cc2ccccc2cc1C(=O)N1CCC(c2ccccc2)CC1)C(c1cccc2ccccc12)P(=O)(O)O (stereo not shown) [Cpd 101]
4,2.32 µM,CN(C(=O)c1cc2ccccc2cc1NC(=O)C(c1cccc2ccccc12)P(=O)(O)O)C1CCCC1 (stereo not shown) [Cpd 91]
5,1.65 ± 0.68 µM,[(5-Chloro-benzo[b]thiophen-3-yl)-(naphthalen-2-ylcarbamoyl)-methyl]-carbamate [Cpd 80]
6,1.5 ± 0.43 µM,CP(=O)(O)C(C(=O)NC=Cc1ccc(Cl)cc1)c1csc2ccc(Cl)cc12 (stereo not shown) [Cpd 78]
7,0.606 ± 0.13 µM,"Cn1cc(C(C(=O)Nc2ccc3ccccc3c2)P(=O)(O)O)c2cc(C(=O)O)ccc21 (stereo not shown) [Cpd 56, 1-Methyl-3-[(naphthalen-2-ylcarbamoyl)-phosphono-methyl]-1H-indole-5-carboxylic acid]"
8,0.51 ± 0.124 µM,O=C(Nc1cc2ccccc2cc1C(=O)N1CCC(CCc2ccccc2)C1)C(c1cccc2ccccc12)P(=O)(O)O (stereo not shown) [Cpd 54]
9,0.43 ± 0.09 µM,COc1ccc(C=CNC(=O)C(c2csc3ccc(Cl)cc23)P(=O)(O)O)cc1OC (stereo not shown) [Cpd 49]
10,0.34 ± 0.04 µM,Cc1ccccc1C=CNC(=O)C(c1csc2ccc(Cl)cc12)P(C)(=O)O (stereo not shown) [Cpd 155]
11,0.23 ± 0.04 µM,CC(=O)Oc1ccccc1/C=C/NC(=O)C(c1csc2ccc(Cl)cc12)P(C)(=O)O (stereo not shown) [Cpd 148]
12,0.13 ± 0.03 µM,CP(=O)(O)C(C(=O)NC=Cc1cccc(C(F)(F)F)c1)c1csc2ccc(Cl)cc12 (stereo not shown) [Cpd 152]
13,0.13 ± 0.02 µM,O=C(Nc1ccc2ccccc2c1)C(c1cn(CC=Cc2ccccc2)c2ccccc12)P(=O)(O)O (stereo not shown) [Cpd 27]
14,0.11 µM,CP(=O)(O)C(C(=O)Nc1cc2ccccc2o1)c1csc2ccc(Cl)cc12 (stereo not shown) [Cpd 146]
15,0.1 ± 0.02 µM,CP(=O)(O)C(C(=O)N/C=C/c1ccccc1Br)c1csc2ccc(Cl)cc12 (stereo not shown) [Cpd 164]
16,0.08 ± 0.02 µM,CP(=O)(O)C(C(=O)N/C=C/c1ccccc1F)c1csc2ccc(Cl)cc12 (stereo not shown) [Cpd 21]
17,0.037 ± 0.01 µM,Cn1cc(C(C(=O)Nc2ccc3ccccc3c2)P(=O)(O)O)c2cc(F)ccc21 (stereo not shown) [Cpd 11]
18,0.036 ± 0.05 µM,COc1cccc(/C=C/NC(=O)C(c2csc3ccc(Cl)cc23)P(C)(=O)O)c1 (stereo not shown) [Cpd 154]
19,0.036 ± 0.01 µM,CP(=O)(O)C(C(=O)N/C=C/c1c(F)cccc1F)c1csc2ccc(Cl)cc12 (stereo not shown) [Cpd 156]
20,0.021 ± 0.01 µM,"O=C(Nc1cc(NC(=O)C(c2cccc3ccccc23)P(=O)(O)O)cc2ccccc12)C1CCN(C(=O)c2ccc3ccccc3c2)CC1 (stereo not shown) [Cpd 8, [(4-{[1-(Naphthalene-2-carbonyl)-piperidine-4-carbonyl]-amino}-naphthalen-2-ylcarbamoyl)-naphthalen-1-yl-methyl]-phosphonic acid]"
